Data on 25 molecules can be found in US7045532B2 (Millennium Pharmaceuticals, Inc., priority 1999, dated 2006).

This assay concerns the target T1, ACE-2 (Homo sapiens, UniProt Q9BYF1).
T1 construct: a stop codon inserted after the serine immediately preceding the transmembrane domain; made in house; host or cells: CHO K1 cells (transient transfection, purified from conditioned medium)
As to the kind of experiment: ACE-2 Competitive Substrate Assay (ACS Assay). Type of assay: biochemical.

Setting [1] is: Ki class, compounds tested in 5% DMSO, 12 concentrations, read-out: Human ACE-2 Activity.
Where [2] appears, read: Ki class, compounds tested in 5% DMSO, 12 compound concentrations, Ki=Kiapp/(1+[S]/Km), read-out: Human ACE-2 Activity.

Read-outs that look alike come from different tables or passages of the source.

T1 sequence (Q9BYF1 18-740 limits assumed): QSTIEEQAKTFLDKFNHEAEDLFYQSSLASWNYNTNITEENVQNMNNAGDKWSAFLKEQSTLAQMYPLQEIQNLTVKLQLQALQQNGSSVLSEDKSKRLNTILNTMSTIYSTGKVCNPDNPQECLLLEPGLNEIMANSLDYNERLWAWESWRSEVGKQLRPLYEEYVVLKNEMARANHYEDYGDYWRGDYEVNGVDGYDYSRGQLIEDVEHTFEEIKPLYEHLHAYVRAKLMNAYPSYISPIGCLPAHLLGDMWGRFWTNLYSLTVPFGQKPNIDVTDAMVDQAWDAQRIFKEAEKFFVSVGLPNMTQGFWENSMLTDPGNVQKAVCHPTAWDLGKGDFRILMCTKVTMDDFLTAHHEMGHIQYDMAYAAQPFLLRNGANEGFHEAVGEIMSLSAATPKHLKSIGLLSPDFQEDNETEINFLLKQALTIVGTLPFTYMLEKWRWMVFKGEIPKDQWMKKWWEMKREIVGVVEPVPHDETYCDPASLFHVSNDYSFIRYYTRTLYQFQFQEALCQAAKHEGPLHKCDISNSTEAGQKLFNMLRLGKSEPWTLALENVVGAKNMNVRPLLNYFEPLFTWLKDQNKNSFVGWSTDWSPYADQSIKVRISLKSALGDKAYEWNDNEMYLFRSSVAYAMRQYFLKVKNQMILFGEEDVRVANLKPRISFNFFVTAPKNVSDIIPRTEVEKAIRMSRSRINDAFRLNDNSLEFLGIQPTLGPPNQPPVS

Consider `CC(C)CC(N[C@@H](Cc1nc2ccccc2n1Cc1ccccc1)C(=O)O)C(=O)O` (single isomer, unassigned) [GR, 2-[2-(1-Benzyl-1H-benzoimidazol-2-yl)-1-carboxy-ethylamino]-4-methyl-pentanoic acid], for which the Ki under setting [1] is over 500 nM. For the molecule `CC(C)CC(N[C@@H](Cc1csc(N)n1)C(=O)O)C(=O)O` (single isomer, unassigned) [GU, 2-[2-(2-Amino-thiazol-4-yl)1-carboxy-ethylamino]-4-methyl-pentanoic acid], the Ki under setting [1] is over 500 nM. Consider `CC(C)CC(N[C@@H](Cc1cncn1Cc1ccc(Cl)c(Cl)c1)C(=O)O)C(=O)O` (single isomer, unassigned) [GX], for which the Ki under setting [2] is over 500 nM.

For the molecule `Cc1nc(C[C@H](NC(CC(C)C)C(=O)O)C(=O)O)cs1` (single isomer, unassigned) [GY, 2-[1-Carboxy-2-(2-methyl-thiazol-4-yl)-ethylamino]-4-methyl-pentanoic acid], under setting [2], the Ki is over 500 nM. Still for that read-out and setting: the same measure for `CC(C)CC(N[C@@H](Cc1cncn1Cc1ccc(C#N)cc1)C(=O)O)C(=O)O` (single isomer, unassigned) [HB, 2-[1-Carboxy-2-[3-(4-cyano-benzyl)-3H-imidazol-4-yl]-ethylamino)4-methyl-pentanoic acid]: over 500 nM. On the same count and under the same terms, in the case of `CC(C)CC(N[C@@H](Cc1cncn1Cc1cccc(Cl)c1)C(=O)O)C(=O)O` (single isomer, unassigned) [HD, 2-{1-Carboxy-2-[3-(3-chloro-benzyl)-3H-imidazol-4-yl]-ethylamino)4-methyl-pentanoic acid] it was over 500 nM; in that of `CC(C)CC(N[C@@H](Cc1cncn1Cc1cc(Cl)cc(Cl)c1)C(=O)O)C(=O)O` (single isomer, unassigned) [HF, 2-[1-Carboxy-2-[3-(3,5-dichloro-benzyl)-3H-imidazol-4-yl]-ethylamino)4-methyl-pentanoic acid], 100 to 500 nM.

With `Cc1ccc(Cn2cncc2C[C@H](NC(CC(C)C)C(=O)O)C(=O)O)cc1` (single isomer, unassigned) [HH, 2-[1-Carboxy-2-[3-(4-methyl-benzyl)-3H-imidazol-4-yl]-ethylamino)4-methyl-pentanoic acid], under setting [2], the Ki was in the range of 100 to 500 nM. Consider `CCCCc1ccc(Cn2cncc2C[C@H](NC(CC(C)C)C(=O)O)C(=O)O)cc1` (single isomer, unassigned) [HI, 2-[2-[3-(4-Butyl-benzyl)-3H-imidazol-4-yl]-1-carboxy-ethylamino]-4-methyl-pentanoic acid], for which, under setting [2], the Ki lay within 100 to 500 nM.

As for `CCCCc1ccc(Cn2cncc2C[C@H](NC(CC(C)C)C(=O)O)C(=O)O)cc1` (single isomer, unassigned) [HJ, 2-[2-[3-(4-Butyl-benzyl)-3H-imidazol-4-yl]-1-carboxy-ethylamino]-4-methyl-pentanoic acid], the Ki under setting [2] was over 500 nM. On the same count and under the same terms, in the case of `Cc1ccc(Cn2cncc2C[C@H](NC(CC(C)C)C(=O)O)C(=O)O)cc1C` (single isomer, unassigned) [HL, 2-[1-Carboxy-2-[3-(3,4-dimethyl-benzyl)-3H-imidazol-4-yl]-ethylamino]4-methyl-pentanoic acid] it was over 500 nM; in that of `CC(C)CC(N[C@@H](Cc1csc(NCc2ccccc2)n1)C(=O)O)C(=O)O` (single isomer, unassigned) [HM, 2-[2-(2-Benzylamino-thiazol-4-yl)-1-carboxy-ethylamino]-4-methyl-pentanoic acid], over 500 nM; in that of `Cc1cccc(Cn2cncc2C[C@H](NC(CC(C)C)C(=O)O)C(=O)O)c1` (single isomer, unassigned) [HP, 2-[1-Carboxy-2-[3-(3-methyl-benzyl)-3H-imidazol-4-yl]-ethylamino]4-methyl-pentanoic acid], over 500 nM. Take `Cc1cc(C)cc(Cn2cncc2C[C@H](NC(CC(C)C)C(=O)O)C(=O)O)c1` (single isomer, unassigned) [HR, 2-[1-Carboxy-2-[3-(3,5-dimethyl-benzyl)-3H-imidazol-4-yl]-ethylamino)4-methyl-pentanoic acid]: the Ki under setting [2] is over 500 nM. Same read-out and setting: the same measure for `CC(C)CC(N[C@@H](Cc1cncn1Cc1ccc(OC(F)(F)F)cc1)C(=O)O)C(=O)O` (single isomer, unassigned) [HT, 2-[1-Carboxy-2-[3-(4-trifluoromethoxy-benzyl)-3H-imidazol-4-yl]-ethylamino]-4-methyl-pentanoic acid]: over 500 nM; for `CC(C)CC(N[C@@H](Cc1cncn1Cc1ccc(C(C)C)cc1)C(=O)O)C(=O)O` (single isomer, unassigned) [HV, 2-[1-Carboxy-2-[3-(4-isopropyl-benzyl)-3H-imidazol-4-yl]-ethylamino)4-methyl-pentanoic acid]: over 500 nM. With `Cc1ccccc1Cn1cncc1C[C@H](NC(CC(C)C)C(=O)O)C(=O)O` (single isomer, unassigned) [HW, 2-[1-Carboxy-2-[3-(2-methyl-benzyl)-3H-imidazol-4-yl]-ethylamino]4-methyl-pentanoic acid], the Ki under setting [2] was in the range of 100 to 500 nM. Still for that read-out and setting: the same measure for `Cc1ccccc1Cn1cncc1C[C@H](NC(CC(C)C)C(=O)O)C(=O)O` (single isomer, unassigned) [HX, 2-[1-Carboxy-2-[3-(2-methyl-benzyl)-3H-imidazol-4-yl]-ethylamino]4-methyl-pentanoic acid]: over 500 nM. Still for that read-out and setting: the same measure for `CC(C)CC(N[C@@H](Cc1cncn1Cc1ccc(C(C)(C)C)cc1)C(=O)O)C(=O)O` (single isomer, unassigned) [HZ, 2-[2-[3-(4-tert-Butyl-benzyl)-3H-imidazol-4-yl]-1-carboxy-ethylamino]-4-methyl-pentanoic acid]: over 500 nM; for `CC(C)CC(N[C@@H](Cc1cncn1Cc1ccccc1CS(=O)(=O)c1ccccc1)C(=O)O)C(=O)O` (single isomer, unassigned) [IA, 2-[2-[3-(2-Benzenesulfonylmethyl-benzyl)-3H-imidazol-4-yl]-1-carboxy-ethylamino]-4-methyl-pentanoic acid]: over 500 nM. On to `CC(C)CC(N[C@@H](Cc1cncn1Cc1ccc([N+](=O)[O-])cc1)C(=O)O)C(=O)O` (single isomer, unassigned) [IC, 2-[1-Carboxy-2-[3-(4-nitro-benzyl)-3H-imidazol-4-yl]-ethylamino]-4-methyl-pentanoic acid], for which the Ki is, setting by setting: under setting [2], under 100 nM; (Table 3, very good ACE-2 inhibiting compounds, species not given, read-out: ACE-2 Activity, Ki) 50 to 100 nM. With `CC(C)CC(N[C@@H](Cc1cncn1Cc1ccc([N+](=O)[O-])cc1)C(=O)O)C(=O)O` (single isomer, unassigned) [ID, 2-[1-Carboxy-2-[3-(4-nitro-benzyl)-3H-imidazol-4-yl]-ethylamino]-4-methyl-pentanoic acid], under setting [2], the Ki was over 500 nM. The same measure, in the same setting: in the case of `CC(C)CC(N[C@@H](Cc1cncn1Cc1ccccc1-c1ccccc1)C(=O)O)C(=O)O` (single isomer, unassigned) [IE] it was over 500 nM; in that of `CC(C)CC(N[C@@H](Cc1cncn1Cc1cc(C(F)(F)F)cc(C(F)(F)F)c1)C(=O)O)C(=O)O` (single isomer, unassigned) [IG, 2-[2-[3-(3,5-Bis-trifluoromethyl-benzyl)-3H-imidazol-4-yl]-1-carboxy-ethylamino]-4-methyl-pentanoic acid], over 500 nM.

For the molecule `CC(C)CC(N[C@@H](Cc1cncn1Cc1ccc(F)cc1)C(=O)O)C(=O)O` (single isomer, unassigned) [IJ, 2-[1-Carboxy-2-[3-(4-fluoro-benzyl)-3H-imidazol-4-yl]-ethylamino]4-methyl-pentanoic acid], the Ki under setting [2] is over 500 nM.
